# Measurements: PubChem BioAssay (NCI)
#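 Interpolation was linear, between the two tested concentrations surrounding the appropriate level; five concentrations were tested over 48 hours in 96-well plates. Definition used: TGI = concentration required for complete inhibition of growth.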
# Columns and labels:
# Assay in all cases: inhibition of tumour cell growth, NCI panel, 48 h
# [1] = test system: HOP-62 NSCLC
# [2] = test system: TK-10 renal
# [3] = test system: K-562 leukemia
# [4] = test system: SK-OV-3 ovarian
# [5] = test system: SW-620 colon
# [6] = test system: SK-MEL-5 melanoma
# [7] = test system: EKVX NSCLC
# [8] = test system: NCI/ADR-RES ovarian
# [9] = test system: HT29 colon
# [10] = test system: U251 CNS
# [11] = test system: M14 melanoma
# [12] = test system: NCI-H522 lung
# [13] = test system: DU-145 prostate
# [14] = test system: PC-3 prostate
# [15] = test system: NCI-H226 lung
# [16] = test system: HCT-15 colon
# [17] = test system: CAKI-1 renal
# [18] = test system: SK-MEL-2 melanoma
# [19] = test system: KM12 colon
# [20] = test system: ACHN renal
# [21] = test system: LOX IMVI melanoma
# [22] = test system: SNB-19 CNS
# [23] = test system: MALME-3M melanoma
# [24] = test system: BT-549 breast
# [25] = test system: 786-0 renal
# [26] = test system: HS 578T breast
# [27] = test system: SF-295 CNS
# [28] = test system: A549 NSCLC
# [29] = test system: UACC-257 melanoma
# [30] = test system: SN12C renal
# [31] = test system: HCT-116 colon
# [32] = test system: HCC-2998 colon
# [33] = test system: NCI-H23 lung
# [34] = test system: OVCAR-8 ovarian
# [35] = test system: MDA-MB-231 breast
# [36] = test system: SR leukemia
# [37] = test system: IGROV1 ovarian
# [38] = test system: COLO 205 colon
# [39] = test system: HOP-92 NSCLC
# [40] = test system: OVCAR-3 ovarian
# [41] = test system: SF-539 CNS
# [42] = test system: MDA-N
# [43] = test system: RXF 393 renal
# [44] = test system: OVCAR-5 ovarian
# [45] = test system: HL-60(TB) leukemia
# [46] = test system: SNB-75 CNS
# [47] = test system: RPMI-8226 leukemia
# [48] = test system: MCF7 breast
# [49] = test system: UACC-62 melanoma
# [50] = test system: CCRF-CEM leukemia
# [51] = test system: SF-268 CNS
# [52] = test system: NCI-H460 lung
# [53] = test system: SK-MEL-28 melanoma
# [54] = test system: MDA-MB-435
# [55] = test system: A498 renal
# [56] = test system: OVCAR-4 ovarian
# [57] = test system: UO-31 renal
# [58] = test system: MOLT-4 leukemia
# [59] = test system: T-47D breast
smiles,measurement,setting,value
CC(C)[N+]([O-])(CCCNc1c2ccccc2nc2cccc([N+](=O)[O-])c12)C(C)C,TGI,[1],1.77 µM
same,TGI,[2],1.4 µM
same,TGI,[3],> 100 µM
same,TGI,[4],2.08 µM
same,TGI,[5],4.9 µM
same,TGI,[6],0.0628 µM
same,TGI,[7],0.528 µM
same,TGI,[8],8.76 µM
same,TGI,[9],1.93 µM
same,TGI,[10],1.19 µM
same,TGI,[11],0.305 µM
same,TGI,[12],0.147 µM
same,TGI,[13],0.133 µM
same,TGI,[14],11.5 µM
same,TGI,[15],2.56 µM
same,TGI,[16],1.58 µM
same,TGI,[17],6.2 µM
same,TGI,[18],1.24 µM
same,TGI,[19],2.53 µM
same,TGI,[20],0.44 µM
same,TGI,[21],0.427 µM
same,TGI,[22],5.17 µM
same,TGI,[23],0.106 µM
same,TGI,[24],0.221 µM
same,TGI,[25],10.1 µM
same,TGI,[26],0.402 µM
same,TGI,[27],0.904 µM
same,TGI,[28],2.53 µM
same,TGI,[29],0.333 µM
same,TGI,[30],0.862 µM
same,TGI,[31],3.94 µM
same,TGI,[32],0.0227 µM
same,TGI,[33],0.168 µM
same,TGI,[34],0.628 µM
same,TGI,[35],0.441 µM
same,TGI,[36],1.15 µM
same,TGI,[37],0.488 µM
same,TGI,[38],0.0577 µM
same,TGI,[39],0.196 µM
same,TGI,[40],1.07 µM
same,TGI,[41],0.24 µM
same,TGI,[42],0.137 µM
same,TGI,[43],0.403 µM
same,TGI,[44],1.31 µM
same,TGI,[45],2.69 µM
same,TGI,[46],0.629 µM
same,TGI,[47],0.0875 µM
same,TGI,[48],14.9 µM
same,TGI,[49],0.356 µM
same,TGI,[50],1.98 µM
same,TGI,[51],3.14 µM
same,TGI,[52],1.78 µM
same,TGI,[53],0.175 µM
same,TGI,[54],0.0758 µM
same,TGI,[55],0.289 µM
same,TGI,[56],0.433 µM
same,TGI,[57],1.35 µM
Cc1ccc2c(c1)C(=C(C#N)C#N)CCCS2(=O)=O,TGI,[1],> 100 µM
same,TGI,[2],> 100 µM
same,TGI,[3],> 100 µM
same,TGI,[4],> 100 µM
same,TGI,[5],> 100 µM
same,TGI,[7],> 100 µM
same,TGI,[8],> 100 µM
same,TGI,[9],> 100 µM
same,TGI,[10],> 100 µM
same,TGI,[11],> 100 µM
same,TGI,[13],> 100 µM
same,TGI,[14],> 100 µM
same,TGI,[15],> 100 µM
same,TGI,[16],> 100 µM
same,TGI,[17],> 100 µM
same,TGI,[18],> 100 µM
same,TGI,[58],> 100 µM
same,TGI,[19],> 100 µM
same,TGI,[20],> 100 µM
same,TGI,[21],> 100 µM
same,TGI,[22],> 100 µM
same,TGI,[24],> 100 µM
same,TGI,[25],> 100 µM
same,TGI,[26],> 100 µM
same,TGI,[27],> 100 µM
same,TGI,[28],> 100 µM
same,TGI,[29],> 100 µM
same,TGI,[30],> 100 µM
same,TGI,[31],> 100 µM
same,TGI,[32],> 100 µM
same,TGI,[33],> 100 µM
same,TGI,[34],> 100 µM
same,TGI,[35],> 100 µM
same,TGI,[36],> 100 µM
same,TGI,[37],> 100 µM
same,TGI,[38],> 100 µM
same,TGI,[39],> 100 µM
same,TGI,[40],> 100 µM
same,TGI,[41],> 100 µM
same,TGI,[42],> 100 µM
same,TGI,[43],> 100 µM
same,TGI,[44],> 100 µM
same,TGI,[45],> 100 µM
same,TGI,[46],> 100 µM
same,TGI,[47],> 100 µM
same,TGI,[49],> 100 µM
same,TGI,[50],> 100 µM
same,TGI,[51],> 100 µM
same,TGI,[52],> 100 µM
same,TGI,[59],> 100 µM
same,TGI,[53],> 100 µM
same,TGI,[54],> 100 µM
same,TGI,[55],> 100 µM
same,TGI,[56],> 100 µM
same,TGI,[57],> 100 µM
COC(=O)c1c([N+](=O)[O-])ncn1[C@H]1OC[C@@H](OC(C)=O)[C@@H](OC(C)=O)[C@@H]1OC(C)=O,TGI,[1],> 100 µM
same,TGI,[2],> 100 µM
same,TGI,[3],> 100 µM
same,TGI,[4],> 100 µM
same,TGI,[5],> 100 µM
same,TGI,[7],> 100 µM
same,TGI,[8],> 100 µM
same,TGI,[9],> 100 µM
same,TGI,[10],> 100 µM
same,TGI,[11],> 100 µM
same,TGI,[12],> 100 µM
same,TGI,[13],> 100 µM
same,TGI,[14],> 100 µM
same,TGI,[15],> 100 µM
same,TGI,[16],> 100 µM
same,TGI,[17],> 100 µM
same,TGI,[58],> 100 µM
same,TGI,[19],> 100 µM
same,TGI,[20],> 100 µM
same,TGI,[21],> 100 µM
same,TGI,[22],> 100 µM
same,TGI,[23],> 100 µM
same,TGI,[24],> 100 µM
same,TGI,[25],> 100 µM
same,TGI,[27],> 100 µM
same,TGI,[28],> 100 µM
same,TGI,[29],> 100 µM
same,TGI,[30],> 100 µM
same,TGI,[31],> 100 µM
same,TGI,[32],> 100 µM
same,TGI,[33],> 100 µM
same,TGI,[34],> 100 µM
same,TGI,[35],> 100 µM
same,TGI,[36],> 100 µM
same,TGI,[37],> 100 µM
same,TGI,[38],> 100 µM
same,TGI,[39],> 100 µM
same,TGI,[40],> 100 µM
same,TGI,[41],> 100 µM
same,TGI,[42],> 100 µM
same,TGI,[43],> 100 µM
same,TGI,[44],> 100 µM
same,TGI,[45],> 100 µM
same,TGI,[46],> 100 µM
same,TGI,[48],> 100 µM
same,TGI,[49],> 100 µM
same,TGI,[50],> 100 µM
same,TGI,[51],> 100 µM
same,TGI,[52],> 100 µM
same,TGI,[59],> 100 µM
same,TGI,[53],> 100 µM
same,TGI,[54],> 100 µM
same,TGI,[55],> 100 µM
same,TGI,[56],> 100 µM
same,TGI,[57],> 100 µM
CC1=NN(c2cccc(Cl)c2)C2(SCC(=O)N2c2nc3ccccc3s2)C1=CC=Cc1ccccc1 (stereo not drawn),TGI,[1],> 100 µM
same,TGI,[2],> 100 µM
same,TGI,[3],> 100 µM
same,TGI,[4],68.5 µM
same,TGI,[5],> 100 µM
same,TGI,[6],47 µM
same,TGI,[7],> 100 µM
same,TGI,[8],> 100 µM
same,TGI,[9],> 100 µM
same,TGI,[10],48.8 µM
same,TGI,[11],> 100 µM
same,TGI,[12],62.3 µM
same,TGI,[13],68.6 µM
same,TGI,[14],> 100 µM
same,TGI,[15],> 100 µM
same,TGI,[16],> 100 µM
same,TGI,[17],> 100 µM
same,TGI,[18],59.8 µM
same,TGI,[58],87.5 µM
same,TGI,[19],> 100 µM
same,TGI,[20],65.9 µM
same,TGI,[21],> 100 µM
same,TGI,[25],> 100 µM
same,TGI,[26],63.4 µM
same,TGI,[27],> 100 µM
same,TGI,[29],> 100 µM
same,TGI,[31],73.7 µM
same,TGI,[32],> 100 µM
same,TGI,[33],91.1 µM
same,TGI,[34],> 100 µM
same,TGI,[35],72 µM
same,TGI,[36],61.8 µM
same,TGI,[37],> 100 µM
same,TGI,[39],45.5 µM
same,TGI,[40],> 100 µM
same,TGI,[41],> 100 µM
same,TGI,[42],> 100 µM
same,TGI,[43],64.1 µM
same,TGI,[44],> 100 µM
same,TGI,[45],3.04 µM
same,TGI,[47],> 100 µM
same,TGI,[48],> 100 µM
same,TGI,[50],> 100 µM
same,TGI,[51],93.5 µM
same,TGI,[52],> 100 µM
same,TGI,[59],> 100 µM
same,TGI,[53],> 100 µM
same,TGI,[54],> 100 µM
same,TGI,[55],61.9 µM
same,TGI,[56],> 100 µM
same,TGI,[57],> 100 µM
